Like-named read-outs stand apart in the source and are kept apart here.
Molecular target: SMYD2 (Homo sapiens (Human), UniProt Q9NRG4)
Assay: SMYD2 biochemical assay (SMYD2 enzyme assay on peptide substrate, 3H-SAM Flashplate)
[1] = read-out: SMYD2 Biochem IC50, IC50 values are an average of n = 1 to n = 50

SMYD2, sequence (Q9NRG4 whole entry): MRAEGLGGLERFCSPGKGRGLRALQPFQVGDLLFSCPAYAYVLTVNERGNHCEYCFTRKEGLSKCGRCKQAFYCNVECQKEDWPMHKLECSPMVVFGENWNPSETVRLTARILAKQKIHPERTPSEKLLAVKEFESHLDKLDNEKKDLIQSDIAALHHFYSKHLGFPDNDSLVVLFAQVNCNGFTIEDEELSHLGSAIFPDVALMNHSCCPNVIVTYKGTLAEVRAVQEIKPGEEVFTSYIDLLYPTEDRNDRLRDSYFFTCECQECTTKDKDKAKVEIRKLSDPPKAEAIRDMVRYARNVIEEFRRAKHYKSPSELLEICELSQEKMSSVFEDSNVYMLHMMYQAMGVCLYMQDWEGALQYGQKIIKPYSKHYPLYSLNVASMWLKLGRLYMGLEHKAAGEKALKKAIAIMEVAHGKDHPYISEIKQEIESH

IC50 [1]	IC50 (SMYD2 Biochem IC50, IC50 values are an average of n = 1 to n = 50)	SMILES
2600 nM		CC(c1cccc(OCC(C)(C)O)c1Cl)N1CC(NC(=O)c2cn(C3CC3)nn2)C1 (stereo not shown) [compound 956, N-(1-(1-(2-chloro-3-(2-hydroxy-2-methylpropoxy)phenyl)ethyl)azetidin-3-yl)-1-cyclopropyl-1H-1,2,3-triazole-4-carboxamide]
600 nM		COc1ccc(C(C)N2CC(NC(=O)c3cc(C4CC4)cnn3)C2)cc1 (stereo not shown) [compound 958, 5-cyclopropyl-N-(1-(1-(4-methoxyphenyl)ethyl)azetidin-3-yl)pyridazine-3-carboxamide]
2670 nM		CCC(c1ccc(C(F)(F)F)cc1)N1CC(NC(=O)c2cn(C3CC3)nn2)C1 (stereo not shown) [compound 700, 1-cyclopropyl-N-(1-{1-[4-(trifluoromethyl)phenyl]propyl}azetidin-3-yl)-1H-1,2,3-triazole-4-carboxamide]
1380 nM		O=C(NC1CN(Cc2ccc(OCCO)cc2)C1)c1cn(C2CC2)nn1 [compound 827, 1-cyclopropyl-N-(1-{[4-(2-hydroxyethoxy)phenyl]methyl}azetidin-3-yl)-1H-1,2,3-triazole-4-carboxamide]
690 nM		COc1cccc(C(C)N2CC(NC(=O)c3cc(C4CC4)cnn3)C2)c1 (stereo not shown) [compound 934, 5-cyclopropyl-N-(1-(1-(3-methoxyphenyl)ethyl)azetidin-3-yl)pyridazine-3-carboxamide]
1400 nM		O=C(NC1CN(Cc2cnn(CC3CCC3)c2)C1)c1cn(C2CC2)nn1 [compound 1001, N-(1-((1-(cyclobutylmethyl)-1H-pyrazol-4-yl)methyl)azetidin-3-yl)-1-cyclopropyl-1H-1,2,3-triazole-4-carboxamide]
176 nM		CC(c1ccc(OCc2ccccc2)cc1)N1CC(NC(=O)c2cn(C3CC3)nn2)C1 (stereo not shown) [compound 693, N-(1-{1-[4-(benzyloxy)phenyl]ethyl}azetidin-3-yl)-1-cyclopropyl-1H-1,2,3-triazole-4-carboxamide]
29100 nM		CC(C)N1CCC(NC(=O)c2cc(C3CC3)cnn2)CC1 [compound 916, 5-cyclopropyl-N-[1-(propan-2-yl)piperidin-4-yl]pyridazine-3-carboxamide]
19800 nM		CC(C)N1CCCC(NC(=O)c2cn(C3CC3)nn2)C1 (stereo not shown) [compound 808, 1-cyclopropyl-N-[1-(propan-2-yl)piperidin-3-yl]-1H-1,2,3-triazole-4-carboxamide]
1550 nM		O=C(NC1CN(Cc2ccccc2)C1)c1cn(C2CC2)nn1 [compound 672, N-(1-benzylazetidin-3-yl)-1-cyclopropyl-1H-1,2,3-triazole-4-carboxamide]
377 nM		C[C@@H](c1ccccc1)N1CC(NC(=O)c2cn(C3CC3)nn2)C1 [compound 709, 1-cyclopropyl-N-{1-[(1S)-1-phenylethyl]azetidin-3-yl}-1H-1,2,3-triazole-4-carboxamide]
7.8 nM		O=C(NC1CN(Cc2cnn(Cc3ccccc3)c2)C1)c1cc(C2CC2)cnn1 [compound 933, N-(1-((1-benzyl-1H-pyrazol-4-yl)methyl)azetidin-3-yl)-5-cyclopropylpyridazine-3-carboxamide]
13 nM		O=C(NC1CN(Cc2cnn(Cc3ccccc3)c2)C1)c1cc(C2CC2)ccn1 [compound 966, N-(1-((1-benzyl-1H-pyrazol-4-yl)methyl)azetidin-3-yl)-4-cyclopropylpicolinamide]
2130 nM		CC(c1ccccc1OC(F)(F)F)N1CC(NC(=O)c2cn(C3CC3)nn2)C1 (stereo not shown) [compound 684, 1-cyclopropyl-N-(1-{1-[2-(trifluoromethoxy)phenyl]ethyl}azetidin-3-yl)-1H-1,2,3-triazole-4-carboxamide]
3060 nM		COCCn1cc(CN2CC(NC(=O)c3cn(C4CC4)nn3)C2)cn1 [compound 717, 1-cyclopropyl-N-(1-{[1-(2-methoxyethyl)-1H-pyrazol-4-yl]methyl}azetidin-3-yl)-1H-1,2,3-triazole-4-carboxamide]
2400 nM		O=C(NC1CN(Cc2cnn(CC3CCOCC3)c2)C1)c1cn(C2CC2)nn1 [compound 949, 1-cyclopropyl-N-(1-((1-((tetrahydro-2H-pyran-4-yl)methyl)-1H-pyrazol-4-yl)methyl)azetidin-3-yl)-1H-1,2,3-triazole-4-carboxamide]
83.4 nM		O=C(NC1CN(Cc2ccc(OCc3ccccc3)cc2)C1)c1cn(C2CC2)nn1 [compound 802, N-(1-{[4-(benzyloxy)phenyl]methyl}azetidin-3-yl)-1-cyclopropyl-1H-1,2,3-triazole-4-carboxamide]
576 nM		CC(c1ccc2c(c1)OCCO2)N1CC(NC(=O)c2cn(C3CC3)nn2)C1 (stereo not shown) [compound 767, 1-cyclopropyl-N-{1-[1-(2,3-dihydro-1,4-benzodioxin-6-yl)ethyl]azetidin-3-yl}-1H-1,2,3-triazole-4-carboxamide]
5600 nM		O=C(NC1CN(Cc2ccc(Cn3cccn3)cc2)C1)c1cn(C2CC2)nn1 [compound 953, N-(1-(4-((1H-pyrazol-1-yl)methyl)benzyl)azetidin-3-yl)-1-cyclopropyl-1H-1,2,3-triazole-4-carboxamide]
2000 nM		CCn1cc(CN2CC(NC(=O)c3cn(C4CC4)nn3)C2)cn1 [compound 946, 1-cyclopropyl-N-(1-((1-ethyl-1H-pyrazol-4-yl)methyl)azetidin-3-yl)-1H-1,2,3-triazole-4-carboxamide]
	414 nM	C[C@H](c1ccc(OCc2ccccc2)cc1)N1CC(NC(=O)c2cn(C3CC3)nn2)C1 (single isomer, unassigned) [compound 788]
598 nM		CCN1CC(NC(=O)c2cc(C3CC3)cnn2)C1 [compound 814, 5-cyclopropyl-N-(1-ethylazetidin-3-yl)pyridazine-3-carboxamide]
1640 nM		COc1cnc(C(C)N2CC(NC(=O)c3cn(C4CC4)nn3)C2)nc1 (stereo not shown) [compound 865, 1-cyclopropyl-N-{1-[1-(5-methoxypyrimidin-2-yl)ethyl]azetidin-3-yl}-1H-1,2,3-triazole-4-carboxamide]
> 50000 nM		CNC1CCOC(CN2CC(NC(=O)c3cn(C4CC4)nn3)C2)C1 (stereo not shown) [compound 758, 1-cyclopropyl-N-(1-{[4-(methylamino)oxan-2-yl]methyl}azetidin-3-yl)-1H-1,2,3-triazole-4-carboxamide]
970 nM		CNC(=O)c1ccc(COc2ccc(C(C)N3CC(NC(=O)c4cn(C5CC5)nn4)C3)cc2)cc1 (stereo not shown) [compound 963, 1-cyclopropyl-N-(1-(1-(4-((4-(methylcarbamoyl)benzyl)oxy)phenyl)ethyl)azetidin-3-yl)-1H-1,2,3-triazole-4-carboxamide]
2950 nM		Cc1nc(C)c(C(C)N2CC(NC(=O)c3cn(C4CC4)nn3)C2)s1 (stereo not shown) [compound 718, 1-cyclopropyl-N-{1-[1-(dimethyl-1,3-thiazol-5-yl)ethyl]azetidin-3-yl}-1H-1,2,3-triazole-4-carboxamide]
1840 nM		COc1ccc(CN2CC(NC(=O)c3cn(C4CC4)nn3)C2)cc1 [compound 826, 1-cyclopropyl-N-{1-[(4-methoxyphenyl)methyl]azetidin-3-yl}-1H-1,2,3-triazole-4-carboxamide]
16 nM		Cc1ccc(Cn2cc(CN3CC(NC(=O)c4cn(C5CC5)nn4)C3)cn2)cc1 [compound 993, 1-cyclopropyl-N-(1-((1-(4-methylbenzyl)-1H-pyrazol-4-yl)methyl)azetidin-3-yl)-1H-1,2,3-triazole-4-carboxamide]

— patent US10266526B2, “Substituted 1,2,3-triazoles as SMYD inhibitors for treating cancer” (EPIZYME, INC., priority 2014, dated 2019)
